Each compound was assayed on NA immobilized magnetic beads (NA from C. perfringens).
Assay type: binding, Clostridium perfringens
For `O=c1cc(-c2ccc(O)c(O)c2)oc2cc(O[C@@H]3O[C@H](CO)[C@@H](O)[C@H](O)[C@H]3O)cc(O)c12` [Galuteolin, galuteolin], the “Behaviour in NA-MB ligand fishing of the artificial mixture” value (shortened to “Behaviour in NA-MB ligand fishing”) was “started to release from the enzyme when NA-MB was extracted using 50% organic solvent”.
For `O=c1c(O)c(-c2ccc(O)c(O)c2)oc2cc(O)cc(O)c12` [Quercetin], the “Behaviour in NA-MB ligand fishing” value was “specific inhibitors of NA”.
For `COc1ccc2c3c1O[C@H]1C[C@@H](O)C=C[C@@]31CCN(C)C2` [galantamine], the “Behaviour in NA-MB ligand fishing” value was “non-inhibitor of NA”.
For `COc1cc(-c2oc3cc(O)cc(O)c3c(=O)c2O)ccc1O` [isorhamnetin], the “Behaviour in NA-MB ligand fishing” value was “started to release from the enzyme when NA-MB was extracted using 50% organic solvent”.
For `COc1cc2c(cc1O)CC[n+]1cc3c(OC)c(OC)ccc3cc1-2` [jatrorrhizine], the “Behaviour in NA-MB ligand fishing” value was “gradually washed out from M-S2 to M-S6”.
`O=c1cc(-c2ccc(O)c(O)c2)oc2cc(O)cc(O)c12` [luteolin] was tested, and the “Behaviour in NA-MB ligand fishing” value was “specific inhibitors of NA”.
